Holding throughout (format): cell-based
The target in one assay is T1, hMC5r (Homo sapiens, UniProt P33032).
T1 construct: Eurofins CEREP SA
The assay is described as follows: cAMP agonist activity assay performed at CEREP (HTRF), MC5. The conditions noted are these: determined by CEREP, CHO-K1 cells; for EC50: cAMP HTRF; for Emax: control Alpha-MSH, read-out: Emax percent hMC5r* (percent of the maximal response obtained with the positive control). On the procedure:
Evaluation of the agonist activity of compounds at the melanocortin receptors was determined by measuring their effects on cAMP production using the HTRF detection method at CEREP (Eurofins CEREP SA, Celle-Lévescault, France). The cells were suspended in HBSS buffer (Invitrogen) complemented with 20 mM HEPES (pH 7.4) and 500 μM IBMX, then distributed in microplates and incubated in the presence of HBSS (basal control), the test compound or the reference agonist. Incubation time, temperature, cell number, reference agonist and cell line information are included in the Table 1 below. For stimulated control measurement, separate assay wells contain reference compound. Following incubation, the cells are lysed and the fluorescence acceptor (D2-labeled cAMP) and fluorescence donor (anti-cAMP antibody labeled with europium cryptate) were added. After 60 minutes at room temperature, the fluorescence transfer was measured at excitation wavelength 337 nm and emission wavelengths 620 and 665 nm using a microplate reader (Envision, Perkin Elmer). The cAMP concentration was determined by dividing the signal measured at 665 nm by that measured at 620 nm (ratio).
The results are expressed as a percent of the control response to 1 μM of the reference. The standard reference agonist is tested in each experiment at several concentrations to generate a concentration-response curve from which its EC50 value is calculated.
(In general: TR-FRET usually uses a lanthanide donor and a delayed reading to cut background.)

The target of a further assay is hMC3r (Homo sapiens, UniProt P41968). Description: Alternative assay for agonist activity (intracellular cAMP), HEK-293 cells, recombinant MC3r. More on the design: expressed in transfected cells; host or cells: HEK-293. As to conditions: for Emax: HEK293, not CEREP, reference NDP-α-MSH, read-out: Emax percent hMC3r (percent of the maximal response obtained with the positive control); for EC50: not CEREP, cAMP HTRF. The procedure:
(§1) Accumulation of intracellular cAMP was examined as a measure of the ability of the peptides to elicit a functional response in either HEK-293 cells that express recombinant MC3r or MC4r or B16-F10 (mouse) and HBL (human) cell lines that express native MC1 r. Confluent cells were detached from culture plates by incubation in enzyme-free cell dissociation buffer. Dispersed cells were suspended in Hank's Balanced Salt Solution containing 10 mM HEPES (pH 7.5), 1 mM MgCl2, 1 mM glutamine, 0.5% albumin and 0.3 mM 3-isobutyl-1-methyl-xanthine (IBMX), a phosphodiesterase inhibitor. The cells were dispensed into 96-well plates at a density of 0.5×10^5 cells per well and pre-incubated for 10 minutes. Cells were exposed for 15 minutes at 37° C. to peptides dissolved in DMSO (final DMSO concentration of 1%) at a concentration range of 0.05-5000 nM in a total assay volume of 200 μL. NDP-α-MSH was used as the reference agonist. cAMP levels were determined by an HTRF® cAMP cell-based assay system from Cisbio Bioassays utilizing cryptate-labeled anti-cAMP and D2-labeled cAMP, with plates read on a Perkin-Elmer Victor plate reader at […]. Data analysis was performed by nonlinear regression analysis with Graph-Pad Prism® software. The maximum efficacies of the test peptides were compared to that achieved by the reference melanocortin agonist NDP-α-MSH.

The target of a further assay is hMC4r (Homo sapiens, UniProt P32245). The assay is described as follows: Alternative assay for agonist activity (intracellular cAMP), HEK-293 cells, recombinant MC4r. More on the design: expressed in transfected cells; host or cells: HEK-293. As to conditions: for Emax: HEK293, not CEREP, reference NDP-α-MSH, read-out: Emax percent hMC4r (percent of the maximal response obtained with the positive control); for EC50: not CEREP, cAMP HTRF. The procedure:
as §1

The target of a further assay is mMC1r (Mus musculus, UniProt Q01727). Description: Alternative assay for agonist activity (intracellular cAMP), B16-F10 cells, native MC1r. As to conditions: not CEREP; for EC50: cAMP HTRF; for Emax: reference NDP-α-MSH, read-out: Emax percent mMC1r (percent of the maximal response obtained with the positive control). Also noted: B16-F10 (mouse) and HBL (human) cell lines that express native MC1 r; endogenous in cells; host or cells: B16-F10 mouse melanoma cells. On the procedure: as §1

A word on the EC50: it is the midpoint of the concentration-response curve. As usually defined, the Emax is the size of the effect at its maximum, as opposed to the concentration needed.

Where a SMILES comes first, the peptide text is derived from it. Bridges are numbered along the chain shown (N, C = ends). [ ]: non-standard residue; d: D form. The star is where a group is joined. ξ: configuration not given here. d1Nal = N[C@H](Cc1cccc2ccccc12)C(=O)O; Nle = CCCC[C@H](N)C(=O)O; Orn = NCCC[C@H](N)C(=O)O; Dab = NCC[C@H](N)C(=O)O; ξHyp = O=C(O)C1CC(O)CN1; Dap = NC[C@H](N)C(=O)O; Ahx = NCCCCCC(=O)O; Bn = c1ccc(C*)cc1; GABA = NCCCC(=O)O; βAla = NCCC(=O)O A value given as a limit tells only on which side of the number the result lay.

Chain of hMC4r (P32245 whole entry): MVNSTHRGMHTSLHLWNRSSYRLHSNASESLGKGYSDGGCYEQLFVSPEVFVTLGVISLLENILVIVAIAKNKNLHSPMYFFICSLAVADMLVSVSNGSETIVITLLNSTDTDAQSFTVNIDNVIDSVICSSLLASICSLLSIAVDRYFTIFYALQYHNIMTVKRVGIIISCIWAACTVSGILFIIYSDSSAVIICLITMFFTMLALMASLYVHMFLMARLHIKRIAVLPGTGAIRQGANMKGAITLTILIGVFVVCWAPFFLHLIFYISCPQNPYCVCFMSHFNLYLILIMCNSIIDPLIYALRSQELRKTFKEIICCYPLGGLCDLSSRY
Chain of mMC1r (Q01727 whole entry): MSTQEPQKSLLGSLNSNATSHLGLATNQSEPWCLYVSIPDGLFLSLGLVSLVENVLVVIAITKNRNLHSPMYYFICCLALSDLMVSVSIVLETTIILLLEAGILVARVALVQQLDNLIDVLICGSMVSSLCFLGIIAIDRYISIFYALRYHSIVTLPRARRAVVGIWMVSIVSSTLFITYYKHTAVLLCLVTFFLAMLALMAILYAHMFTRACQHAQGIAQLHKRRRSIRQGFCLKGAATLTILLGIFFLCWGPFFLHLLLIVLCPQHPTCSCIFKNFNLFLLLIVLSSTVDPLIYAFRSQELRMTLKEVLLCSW
T1 sequence (P33032 whole entry): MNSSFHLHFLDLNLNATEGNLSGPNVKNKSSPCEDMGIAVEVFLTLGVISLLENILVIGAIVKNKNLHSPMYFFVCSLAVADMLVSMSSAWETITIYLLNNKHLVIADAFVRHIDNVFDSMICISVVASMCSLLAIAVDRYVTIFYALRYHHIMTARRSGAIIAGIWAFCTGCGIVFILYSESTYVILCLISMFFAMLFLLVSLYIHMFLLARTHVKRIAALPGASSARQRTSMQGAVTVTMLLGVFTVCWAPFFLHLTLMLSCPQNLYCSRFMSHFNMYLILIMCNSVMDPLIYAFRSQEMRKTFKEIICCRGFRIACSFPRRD
Chain of hMC3r (P41968 whole entry): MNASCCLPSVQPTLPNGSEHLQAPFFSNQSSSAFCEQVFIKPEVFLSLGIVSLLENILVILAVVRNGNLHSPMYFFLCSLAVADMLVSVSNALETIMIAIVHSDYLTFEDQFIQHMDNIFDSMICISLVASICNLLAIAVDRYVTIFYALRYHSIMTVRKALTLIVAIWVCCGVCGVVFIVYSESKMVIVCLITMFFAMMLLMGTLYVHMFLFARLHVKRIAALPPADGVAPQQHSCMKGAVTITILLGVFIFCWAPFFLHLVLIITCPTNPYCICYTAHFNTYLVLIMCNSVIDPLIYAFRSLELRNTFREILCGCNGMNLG

For `CCCC[C@H](NC(C)=O)C(=O)N[C@H]1CCCCNC(=O)CCNC(=O)[C@H](Cc2c[nH]c3ccccc23)NC(=O)[C@H](CCCNC(=N)N)NC(=O)[C@@H](Cc2cccc3ccccc23)NC(=O)C2CC(OCc3ccccc3)CN2C1=O` (stereo partly shown) [Peptide 2] (Ac-[Nle]K[ξHyp](Bn)[d1Nal]RW[βAla]; lactam 2-C), the EC50 at hMC5r is 0.23 nM; at hMC3r, over 10000 nM; at hMC4r, 5 nM; on mMC1r, 2 nM. Besides, the Emax at hMC5r was 96%; at hMC3r, 14%; on hMC4r, 33%; on mMC1r it was 61%.

On to `CCCC[C@H](NC(C)=O)C(=O)N[C@H]1CCCNC(=O)CCNC(=O)[C@H](Cc2c[nH]c3ccccc23)NC(=O)[C@H](CCCNC(=N)N)NC(=O)[C@@H](Cc2cccc3ccccc23)NC(=O)C2CC(OCc3ccccc3)CN2C1=O` (stereo partly shown) [Peptide 3] (Ac-[Nle][Orn][ξHyp](Bn)[d1Nal]RW[βAla]; lactam 2-C), for which the EC50 on hMC5r was 0.2 nM; at hMC3r, over 10000 nM; at hMC4r it was 5 nM; on mMC1r, 2 nM. Further, the Emax was found to be 93% on hMC5r, 12% on hMC3r, 31% on hMC4r and 67% at mMC1r.

`CCCC[C@H](NC(C)=O)C(=O)N[C@H]1CCCNC(=O)CNC(=O)[C@H](Cc2c[nH]c3ccccc23)NC(=O)[C@H](CCCNC(=N)N)NC(=O)[C@@H](Cc2cccc3ccccc23)NC(=O)C2CC(OCc3ccccc3)CN2C1=O` (stereo partly shown) [Peptide 4] (Ac-[Nle][Orn][ξHyp](Bn)[d1Nal]RWG; lactam 2-C): the EC50 on hMC5r is 10 nM; on hMC3r, over 10000 nM; on hMC4r, 15 nM; at mMC1r, 26 nM. Also, the Emax amounted to 118% on hMC5r, 10% at hMC3r, 38% on hMC4r and 67% on mMC1r.

Consider `CCCC[C@H](NC(C)=O)C(=O)N[C@H]1CCNC(=O)CCNC(=O)[C@H](Cc2c[nH]c3ccccc23)NC(=O)[C@H](CCCNC(=N)N)NC(=O)[C@@H](Cc2cccc3ccccc23)NC(=O)C2CC(OCc3ccccc3)CN2C1=O` (stereo partly shown) [Peptide 5] (Ac-[Nle][Dab][ξHyp](Bn)[d1Nal]RW[βAla]; lactam 2-C), for which the EC50 was 0.74 nM on hMC5r, over 10000 nM at hMC3r, 11 nM at hMC4r and 5 nM on mMC1r. For the same molecule, the maximal response (Emax) at hMC5r amounted to 77%; at hMC3r it was 5%; at hMC4r, 32%; on mMC1r, 75%.

As to `CCCC[C@H](NC(C)=O)C(=O)N[C@H]1CNC(=O)CNC(=O)[C@H](Cc2c[nH]c3ccccc23)NC(=O)[C@H](CCCNC(=N)N)NC(=O)[C@@H](Cc2cccc3ccccc23)NC(=O)C2CC(OCc3ccccc3)CN2C1=O` (stereo partly shown) [Peptide 6] (Ac-[Nle][Dap][ξHyp](Bn)[d1Nal]RWG; lactam 2-C), the maximum response (Emax) turned out to be 6% on hMC3r, 36% at hMC4r and 34% at mMC1r. Further, the EC50 is over 10000 nM at hMC3r, 87 nM on hMC4r and 521 nM at mMC1r.

In the case of `CC(=O)N[C@@H](CCCNC(=N)N)C(=O)N[C@H]1CCCNC(=O)CCCNC(=O)[C@H](Cc2c[nH]c3ccccc23)NC(=O)[C@H](CCCNC(=N)N)NC(=O)[C@@H](Cc2ccccc2)NC(=O)[C@H](CC(N)=O)NC1=O` [Peptide 8] (Ac-R[Orn]N[dF]RW[GABA]; lactam 2-C), the concentration giving a half-maximal response (EC50) on hMC5r is over 10000 nM; at hMC3r it was 20 nM; at hMC4r it was 1 nM; at mMC1r, 230 nM. The maximal effect (Emax) at hMC5r was 41%; at hMC3r it was 75%; at hMC4r it was 101%; on mMC1r it was 74%.

For the molecule `CC(=O)N[C@@H](CCCNC(=N)N)C(=O)N[C@H]1CCNC(=O)CCCCNC(=O)[C@H](Cc2c[nH]c3ccccc23)NC(=O)[C@H](CCCNC(=N)N)NC(=O)[C@@H](Cc2ccccc2)NC(=O)[C@H](Cc2c[nH]cn2)NC1=O` [Peptide 9], the EC50 at hMC5r is over 10000 nM; on hMC3r it was 0.5 nM; at hMC4r, 0.22 nM; at mMC1r it was 0.9 nM. The Emax at hMC5r was 32%; at hMC3r it was 104%; on hMC4r, 105%; on mMC1r, 79%.

With `CC(=O)N[C@@H](CCCNC(=N)N)C(=O)N[C@H]1CNC(=O)CCCCCNC(=O)[C@H](Cc2c[nH]c3ccccc23)NC(=O)[C@H](CCCNC(=N)N)NC(=O)[C@@H](Cc2ccccc2)NC(=O)[C@H](Cc2c[nH]cn2)NC1=O` [Peptide 11], the 50% effective concentration (EC50) on hMC5r is over 10000 nM; on hMC3r it was 7 nM; at hMC4r it was 0.19 nM; on mMC1r, 2 nM. In addition, the Emax at hMC5r worked out at 13%; at hMC3r it was 98%; at hMC4r, 99%; on mMC1r it was 93%.

As to `CC(=O)N[C@@H](CCCNC(=N)N)C(=O)N[C@H]1CNC(=O)CCCCCNC(=O)[C@H](Cc2c[nH]c3ccccc23)NC(=O)[C@H](CCCNC(=N)N)NC(=O)[C@@H](Cc2ccccc2)NC(=O)[C@H](CC(N)=O)NC1=O` [Peptide 12] (Ac-R[Dap]N[dF]RW[Ahx]; lactam 2-C), the EC50 is over 10000 nM on hMC5r, 55 nM at hMC3r, 2 nM at hMC4r and 206 nM on mMC1r. Further, the Emax on hMC5r was determined as 20%; at hMC3r it was 48%; at hMC4r, 116%; on mMC1r, 95%.

Consider `CC(=O)N[C@@H](CCCNC(=N)N)C(=O)N[C@H]1CCCNC(=O)CCCNC(=O)[C@H](Cc2c[nH]c3ccccc23)NC(=O)[C@H](CCCNC(=N)N)NC(=O)[C@@H](Cc2ccccc2)NC(=O)[C@H](Cc2c[nH]cn2)NC1=O` [Peptide 13], for which the EC50 at hMC5r is over 10000 nM; on hMC3r it was 0.4 nM; on hMC4r, 0.27 nM; at mMC1r, 1 nM. Also, the Emax on hMC5r came to 25%; on hMC3r, 101%; on hMC4r it was 87%; on mMC1r, 80%.

As for `CC(=O)N[C@@H](CCCNC(=N)N)C(=O)N[C@H]1CCCCNC(=O)CCNC(=O)[C@H](Cc2c[nH]c3ccccc23)NC(=O)[C@H](CCCNC(=N)N)NC(=O)[C@@H](Cc2ccccc2)NC(=O)[C@H](Cc2c[nH]cn2)NC1=O` [Peptide 14] (Ac-RKH[dF]RW[βAla]; lactam 2-C), the 50% effective concentration (EC50) on hMC5r was over 10000 nM; on hMC3r it was 0.2 nM; at hMC4r, 0.15 nM; on mMC1r, 0.79 nM. The Emax at hMC5r turned out to be 22%; on hMC3r, 106%; at hMC4r, 83%; on mMC1r, 111%.

`CC(=O)N[C@@H](CCCNC(=N)N)C(=O)N[C@H]1CCCCNC(=O)CCNC(=O)[C@H](Cc2c[nH]c3ccccc23)NC(=O)[C@H](CCCNC(=N)N)NC(=O)[C@@H](Cc2ccccc2)NC(=O)[C@H](CC(N)=O)NC1=O` [Peptide 15] (Ac-RKN[dF]RW[βAla]; lactam 2-C): the EC50 was 140 nM at hMC5r, 2 nM at hMC3r, 0.3 nM at hMC4r and 140 nM on mMC1r. Further, the maximal response (Emax) came to 44% at hMC5r, 90% at hMC3r, 94% on hMC4r and 102% on mMC1r.

The record behind these values is patent US20220363719A1, “Reverse Amide-Linked Melanocortin Receptor-Specific Cyclic Peptides” (Palatin Technologies, Inc., priority 2020, published 2022).
